The results in this text go back to patent publication EP0700301B1, “PEPTIDES AND COMPOUNDS THAT BIND TO ELAM-1” (AFFYMAX TECHNOLOGIES N.V., priority 1993, dated 1994).

In the assay the target is T1, immobilized ELAM-1 (Homo sapiens, UniProt P16581).
T1 construct: truncated form comprising the complete extracellular domain (amino acids 1 through 554); made in house; released with phospholipase C
T1 sequence (P16581 22-554): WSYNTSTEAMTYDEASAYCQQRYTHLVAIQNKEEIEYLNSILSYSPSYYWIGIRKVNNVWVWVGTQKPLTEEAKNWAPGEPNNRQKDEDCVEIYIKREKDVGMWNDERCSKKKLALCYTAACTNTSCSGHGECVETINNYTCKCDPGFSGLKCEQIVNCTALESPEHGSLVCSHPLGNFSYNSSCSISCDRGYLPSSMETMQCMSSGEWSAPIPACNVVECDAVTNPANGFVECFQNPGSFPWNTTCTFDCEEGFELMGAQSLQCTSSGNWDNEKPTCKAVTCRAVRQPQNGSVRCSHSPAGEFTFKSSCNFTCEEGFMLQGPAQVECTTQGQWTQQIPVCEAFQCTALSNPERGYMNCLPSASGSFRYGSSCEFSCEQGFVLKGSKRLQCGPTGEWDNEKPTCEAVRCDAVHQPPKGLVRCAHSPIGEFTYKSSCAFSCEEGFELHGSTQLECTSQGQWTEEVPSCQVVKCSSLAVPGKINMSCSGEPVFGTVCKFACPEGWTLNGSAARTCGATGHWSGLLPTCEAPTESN
Description: cell-based. Format: cell-based. As to the method:
By comparing test wells with control wells (no receptor), one can determine whether a peptide binds to ELAM-1 specifically. Peptides found to bind specifically to ELAM-1 were then synthesized as the free peptide (no phage) and tested in an HL60 cell adhesion competition assay. The competition assay was carried out similarly to the ELISA, except that labeled HL60 cells were added in addition to the peptide (the control wells were typically of at least two types: (1) no immobilized ELAM-1; and (2) no peptide; see the Examples). Peptides that block the binding of labeled HL60 cells ELAM-1 are preferred compounds of the invention. […] The assay requires HL60 cells labeled with tritiated thymidine. To label the cells, about 10 million HL60 cells are collected by centrifugation (2500 RPM for 3 minutes) and resuspended in 15 mL of DMEM/F12 plus 5% fetal calf serum containing 2 μCi/mL of tritiated thymidine (Amersham). The cells are then placed in a T75 flask and incubated at 37°C for 24 hours. The cells are then collected by centrifugation, washed twice with RPMI/HEPES/0.1% FCS, and resuspended in the same solution at a concentration of about one to two million cells per mL. […] After this incubation, aliquots were removed from each well and placed in scintillation vials; scintillation fluid was added to each vial; and the radioactivity in each aliquot was quantitated by LS counting. […]

Ends that are not written are not given here.

Turning to HITWDQLWNVMN, the “blocking of HL60 cell binding that occurred in the absence of added compound” value (200000.0) is “over 80%”. Also, the inhibition (commonly how much of the control response was suppressed) at 50 µM (HL-60, at a concentration of 50 µM, tested from 0.5 to 100 µM, Figure 2, read-out: inhibition of binding of HL60 cells) was approximately 50%.
